Experimental data published in patent EP0857483A1, “Substituted aminopyridines in the treatment of glucose metabolism disorders” (ELI LILLY AND COMPANY, priority 1997, dated 1998).

How the values were obtained:
[1] = system: I1 receptors over α2 adrenergic receptors; conditions: bovine RVLM; saturation binding; Ernsberger et al., J. Pharmacol. Exp. Ther., 264, 172-182 (1993); cited from earlier work
[2] = system: Zucker diabetic fatty rat (ZDF-DRT-fa); test: Further study: plasma glucose in ZDF rats with dose reduction and withdrawal of treatment; assay type: in vivo
Method: (§1) To determine the impact of treatment with the substituted aminopyrimidines of Formula I on the progression of disease 6 week-old ZDF animals were grouped into the following categories, with 5 animals assigned to each group. Group 1 Control (5008 chow ad libitum) Group 2 Moxonidine (10 mg/kg/day) Group 3 Pair fed to correct for decrease in food consumption in 10 mg/kg/day group
(§2) Rats were housed one per plastic cage with bedding and had free access to water and Purina Formulalab 5008 Chow (except pair fed group). Because previous studies had indicated a reduction in food consumption with moxonidine treatment, body weight and food consumption were monitored daily, and a group of control animals was pair fed to moxonidine treated group. Blood samples were collected from the tail vein. Plasma glucose and insulin levels are monitored weekly.
(§3) Plasma glucose was measured by coupled hexokinase method on the IL Monarch System (Instrumentation Laboratory, Lexington, MA). Plasma insulin was determined with radioimmunoassay kit from Diagnostics Products Corporation (San Diego, CA) using rat insulin as a standard.
A further study was carried out as described above, except that moxonidine treatment was reduced to 6.4 mg/kg/day for two days, followed by resumption of moxonidine treatment at 10 mg/kg/day for 13 days, and then stopping moxonidine treatment.

[3] = system: Zucker diabetic fatty rat (ZDF-DRT-fa); test: Plasma glucose in 6 week-old prediabetic Zucker diabetic fatty rats; assay type: in vivo; conditions: value (SEM)
Method: (§4) The activity of the compounds of the present invention was determined by testing the efficacy in vivo in Zucker diabetic rats.
(§5) The Zucker diabetic fatty rat (ZDF-DRT-fa) is a classic rodent model of diabetes associated with obesity and insulin resistance, with tissue specific defects in insulin sensitivity similar to human patients with type II diabetes mellitus. This animal model at six weeks of age is normoglycemic, but glucose intolerant (Clark JB, Palmer CJ, and Shaw WN: The diabetic Zucker fatty rat, Proceeding of the Society for Experimental Bioloqy and Medicine 173, 68-75, 1983; and Peterson RG, Shaw WN, Neel M, Little LA, Eichburg J: Zucker diabetic fatty rat as a model for non-insulin dependent diabetes mellitus. ILAR News 32:16-19, 1990.) Between seven and eight weeks of age, plasma glucose levels rise as the pancreatic beta cells lose their ability to secrete sufficient insulin to compensate for insulin resistance. In an attempt to maintain plasma glucose in normal range, the pancreas is forced to secrete increasing amount of insulin, resulting in hyperinsulinemia (Bue JM and Shaw WN: ZDF-Drt-fa rat: A new model with marked susceptibility to dietary manipulation. Diabetes 40:865A, 1991). The ZDF rat is usually studied between eight and nine weeks of age when it is hyperglycemic, hyperinsulinemic, and hyperlipemic, in an attempt to halt further decline of pancreatic function. The present study was carried out in six weeks old animals (prediabetic). The purpose of this study was to determine whether moxonidine treatment will prevent or delay onset of diabetes in the six weeks old prediabetic ZDF rat.
as §1, §2, §3
(§6) Plasma glucose and plasma insulin were monitored weekly. The results of these in vivo experiments are set forth below in Tables 1 and 2. The value in parenthesis following the plasma glucose value and plasma insulin value is the standard error of the mean.

[4] = system: Zucker diabetic fatty rat (ZDF-DRT-fa); test: Plasma insulin in 6 week-old prediabetic Zucker diabetic fatty rats; assay type: in vivo; conditions: value (SEM)
Method: as §4, §5, §1, §2, §3, §6

Clc1cccc(Cl)c1N=C1NCCN1 [clonidine]
selectivity value (Ki at α2 sites in µM/Ki sites in µM) [1]: less than 4

COc1nc(C)nc(Cl)c1N=C1NCCN1 [Moxonidine, 4-chloro-N-(imidazoline-2-ylidene) -6-methoxy-2-methyl-5-pyrimidineamine]
Plasma Glucose ([2]; Treatment period day 0, mox @ 10 m/k/d): 141.5333 mg/dL | Plasma Glucose ([2]; Treatment period day 7, mox @ 10 m/k/d): 152.8917 mg/dL | Plasma Glucose ([2]; Treatment period day 14, mox @ 10 m/k/d): 166.2528 mg/dL | Plasma Glucose ([2]; Treatment period day 21, at this day reduced mox dose to 6.4 m/k/d): 172.1556 mg/dL | Plasma Glucose ([2]; Treatment period day 23, after two days at 6.4 m/k/d, mox @ 10 m/k/d resumed): 254.0889 mg/dL | Plasma Glucose ([2]; Treatment period day 28, mox @ 10 m/k/d): 251.4833 mg/dL | Plasma Glucose ([2]; Treatment period day 36, stopped mox treatment): 242.5944 mg/dL | Plasma Glucose ([2]; Treatment period day 42, 1 wk after mox is removed): 265.9556 mg/dL | Plasma Glucose ([2]; Treatment period day 49, 2 wks after mox is removed): 410.425 mg/dL | Plasma Glucose ([3]; Day 0, 10 mg/kg/day): 145.6 (2.4) mg/dl | Plasma Glucose ([3]; Day 7, 10 mg/kg/day): 148.1 (13.8) mg/dl | Plasma Glucose ([3]; Day 14, 10 mg/kg/day): 166.1 (11.2) mg/dl | Plasma Glucose ([3]; Day 21, 10 mg/kg/day): 164.2 (8.0) mg/dl | Plasma Glucose ([3]; Day 28, 10 mg/kg/day): 168.0 (12.6) mg/dl | Plasma Glucose ([3]; Day 35, 10 mg/kg/day): 191.6 (8.2) mg/dl | Plasma Glucose ([3]; Day 42, 10 mg/kg/day): 179.8 (6.1) mg/dl | Plasma Glucose ([3]; Day 49, 10 mg/kg/day): 152.1 (8.7) mg/dl | Plasma Glucose ([3]; Day 63, 10 mg/kg/day): 168.4 (12.6) mg/dl | Plasma Insulin ([4]; Day 0, 10 mg/kg/day): 10.9 (0.9) ng/ml | Plasma Insulin ([4]; Day 7, 10 mg/kg/day): 9.3 (1.0) ng/ml | Plasma Insulin ([4]; Day 14, 10 mg/kg/day): 12.7 (1.4) ng/ml | Plasma Insulin ([4]; Day 21, 10 mg/kg/day): 17.8 (1.2) ng/ml | Plasma Insulin ([4]; Day 28, 10 mg/kg/day): 23.4 (1.8) ng/ml | Plasma Insulin ([4]; Day 35, 10 mg/kg/day): 24.8 (1.4) ng/ml | Plasma Insulin ([4]; Day 42, 10 mg/kg/day): 20.6 (0.7) ng/ml
